Assay [1] has as its system anti-pS2 antibody EPR18855. The assay can be described thus: Indirect ELISA, relative binding at single antibody dilution. Set-up: species or system rabbit. Particulars: immobilized peptide. Here is the method:
(§1) To allow rapid screening, the His6-tagged CTD peptides were immobilized onto Ni^2+-coated 96-well microtiter plates. The immobilized peptides were incubated with increasing concentrations of the anti-pS2 antibody E1Z3G. […] Next, positional scanning was performed with anti-pS2 antibodies EPR18855 (Abcam) and 2G1 (Thermo Fisher/Invitrogen). Here, and in subsequent experiments, we refrained from obtaining titration curves and instead determined the fold change of antibody binding relative to that of a reference binder (Figure 4B).
(§2) Figure 4 (A) Titration of the E1Z3G primary antibody to immobilized hexaheptade peptides. […] (C) Probing chelate and cluster effects upon binding of EPR18855, 2G1, and E1Z3G mAbs to hexaheptad peptides containing two or six pSer2 residues. […] 100 μL of TMB–H2O2 solution (1:1), 20 min, 25 °C, ii. 100 μL of 2 M H2SO4, 1 min, 25 °C. Washes and dilution of the antibodies were performed with NaH2PO4, 200 mM BSA (1% w/v), and 0.05% Tween-20 at pH 7.4. Assays were performed in triplicate with randomized positions of probes or antibodies.
(§3) A stock solution in immobilization buffer (NaH2PO4 200 mM, pH 7.4 ) was prepared for every test peptide. The […]
(§4) withdrawn and diluted step w ise with immobilization buffer from high µM range to 300 nM. Stock solution s an d sample s w ere stored at - 8 0°C.
(§5) - Thawing o f all the sampl es at room temperature for 30 min utes. The samples were quickly centrifuged and carefully mi xed before being used.
(§6) - Plating of the samples (100 µl) into a black non-binding 96-well plate that was previously conditioned overnight with wash buffer (NaH2PO4 200 mM, BS A 1% w/ v, Tween -20 0. 05%, pH 7. 4) and washed 3 times with the immobilization buffer.
(§7) - Sample s wer e transferred wit h a multi-channel pip ette to the clear Ni2+-coated 96 -well p late. Thi s plate-to-plate transfer provided full control of the timing of the Ni2+ -His6 interaction.
(§8) - Incubation for one hour at 25°C.
(§9) - Preparation of the primary antibody dilutions from the stock and then subsequent serial dilutions using […]
(§10) - Wash ing the plate 5 tim es for one minute with wa sh buffer (200 µl) .
(§11) - Plating of the primary antibody (100 µl) and incubation of the primary antibody for 1 hour at 37°C.
(§12) - Preparation of the dilution and plating (100 µl) of the secon dary antibody.
(§13) - Incubation for 30 minutes at 37°C.
(§14) - Wash ing the plate 5 times for one minute with wa sh buffer (200 µl) .
(§15) - Plating of the freshly prepared TMB-H 2O2 solution (1:1, 10 0 µl) .
(§16) - TMB solution incubation for 20 minutes at 25 °C.
(§17) - Plating of the Stop solution (2 M H2SO4, 1 00 µL).
(§18) - Incubation at 25°C for 1 minute.
(§19) - Plate reading at 450 nm, nor mal aperture, 1 second as m e asurem ent time . […]
(§20) for the primary and secondary antibodies. The average value of the optical density of the blanks was subtracted from the OD of the analyte s in the s ame plate befor e data analysi s. All the e xperi ments have be en perfor med a s biologi cal triplicate unless otherwise stated. […]
(§21) in each triplicate to provide randomization on the plate. […]
(§22) - Relative affinity mea suremen ts: 3 serial dilutions o f the pri mary mAbs wer e used in the experi ment fro m […]
(§23) nM). The relati ve binding valu es wer e g enerated by dividing the OD value for each probe by the OD value of the referenc e peptide tested in the sa me plat e, with th e sa me conditions. […]
For orientation: In an ELISA, binding on a coated surface is turned into a signal by an enzyme label.

Assay [2] deals with anti-pS2 antibody 2G1. The description is as above. Also on record: species or system rabbit. Particulars: immobilized peptide. Here is the method: as §1, §2, §3, §4, §5, §6, §7, §8, §9, §10, §11, §12, §13, §14, §15, §16, §17, §18, §19, §20, §21, §22, §23
The subject of assay [3] is anti-pS2 antibody E1Z3G. The assay is described as above. Set-up: species or system rabbit. Particulars: immobilized peptide. Here is the method:
as §1, §2, §3, §4, §5, §6, §7, §8, §9, §10, §11, §12, §13, §14, §15, §16, §17, §18, §19, §20, §21, §22, §23

Assay [4] deals with anti-pS2 antibody EPR18855. The assay can be described thus: Competitive ELISA with immobilized phosphopeptide 35. The format is binding, rabbit. Particulars: for LogIC50, best-fit value (Table S4, EPR18855): log10 of competitor concentration, One site-Fit logIC50; for competition against immobilized peptide 35 for antibody binding (in words): peptide in solution, increasing concentrations. As for the experimental part:
(§24) The 100% binding value refers to binding of antibody to immobilized 35 in the absence of competitor.
as §3, §4, §5, §6, §7, §8, §9, §10, §11, §12, §13, §14, §15, §16, §17, §18, §19, §20, §21
(§25) After the incubation time and the wash, the seri es of dilutions ( 300, 100, 50, 25, 1 2.5, 6.2 5, 2. 1 and 0.7 nM) of the co mpetit ors wa s plated, all […]
(§26) the samples in half the volu me (50 µL) and double the concentration. Incubation for 5 minutes at 25°C.
(§27) Plating of the primary antibody in half the volume (50 µL) and double the concentration. The final volume in each well was 100 µL, and the final concentration of the primary antibody was 1:1000. On the same plate, a highly concentrated sample of each competitor (1.2 µM) was also plated to evaluate p ossible unspecific

For assay [5], the system named is anti-pS2 antibody 2G1. The assay is described as above. Particulars: for LogIC50, best-fit value (Table S4, 2G1): log10 of competitor concentration, One site-Fit logIC50; for competition against immobilized peptide 35 for antibody binding (in words): peptide in solution, increasing concentrations. The format is binding, rabbit. Here is the method:
as §24, §3, §4, §5, §6, §7, §8, §9, §10, §11, §12, §13, §14, §15, §16, §17, §18, §19, §20, §21, §25, §26, §27

Assay [6] has as its system anti-pS2 antibody E1Z3G. The description is as above. The format is binding, rabbit. Particulars: for LogIC50, best-fit value (Table S4, E1Z3G): log10 of competitor concentration, One site-Fit logIC50; for competition against immobilized peptide 35 for antibody binding (in words): peptide in solution, increasing concentrations. As for the experimental part: as §24, §3, §4, §5, §6, §7, §8, §9, §10, §11, §12, §13, §14, §15, §16, §17, §18, §19, §20, §21, §25, §26, §27

As for “HHHHHH-NH-(CH2)2-(OCH2CH2)6-CO-YpSPTSPS-YpSPTSPS-YpSPTSPS-YpSPTSPS-YpSPTSPS-YpSPTSPS-NH2 [compound 7, His6-PEG6 hexaheptad CTD peptide, hexa-pSer2]”, in assay [1], the “recognition by EPR18855 (in words)” value is “did not enhance binding”. Further, the “recognition by 2G1 (in words)” value with anti-pS2 antibody 2G1 [2] is listed as “did not enhance binding”. In addition, the “binding enhancement of E1Z3G relative to 35” value in the assay with anti-pS2 antibody E1Z3G [3] worked out at 5 fold.
Regarding “Ac- YSPTSPS YSPTSPS YSPTSPS YSPTSPS YSPTSPS YSPTSPS -NH2 [compound 4, Ac-hexaheptad CTD peptide amide phosphorylated at each Ser5]”, in assay [4], the “LogIC50, best-fit value (Table S4, EPR18855)” value turned out to be 1.287 and the “competition against immobilized peptide 35 for antibody binding (in words)” value (“competition” for short) is on record as “not able to compete”. In the assay with anti-pS2 antibody 2G1 [5], the “LogIC50, best-fit value (Table S4, 2G1)” value is 7.562 and the “competition” value is “not able to compete”. In the assay on anti-pS2 antibody E1Z3G [6], the “LogIC50, best-fit value (Table S4, E1Z3G)” value is ~ -3.629 and the “competition” value is “not able to compete”.
In the case of “H6-NH-(CH2)2-PEG6-CO-YSPTSPS-YpSPTSPS-(YSPTSPS)4-YAPTSPS-(YSPTSPS)-YpSPTSPS-(YSPTSPS)3 [compound 27, dodecaheptad CTD peptide, pSer2 in heptads 2 and 9]”, in assay [1], the “recognition by EPR18855 (in words)” value is “remained at the level of the monovalent phosphopeptide”. Also, the “recognition by 2G1 (in words)” value with anti-pS2 antibody 2G1 [2] is given as “remained at the level of the monovalent phosphopeptide”.
“Ac- YSPTSPS YSPTSPS YSPTSPS YSPTSPS YSPTSPS YSPTSPS -NH2 [compound 3, Ac-hexaheptad CTD peptide amide phosphorylated at each Thr4]”: in assay [4], the “LogIC50, best-fit value (Table S4, EPR18855)” value amounted to 8.303 and the “competition” value is reported as “not able to compete”. In the assay with anti-pS2 antibody 2G1 [5], the “LogIC50, best-fit value (Table S4, 2G1)” value is reported as ~ 8.143 and the “competition” value is reported as “not able to compete”. In the assay with anti-pS2 antibody E1Z3G [6], the “LogIC50, best-fit value (Table S4, E1Z3G)” value is -5.866 and the “competition” value is “not able to compete”.
As for “H6-NH-(CH2)2-PEG6-CO-YSPTSPS-YpSPTSPS-(YSPTSPS)4-YAPTSPS-(YSPTSPS)2-YpSPTSPS-(YSPTSPS)2 [compound 28, dodecaheptad CTD peptide, pSer2 in heptads 2 and 10]”, in assay [1], the “recognition by EPR18855 (in words)” value was “remained at the level of the monovalent phosphopeptide”. The “recognition by 2G1 (in words)” value in the assay with anti-pS2 antibody 2G1 [2] is given as “remained at the level of the monovalent phosphopeptide”.

The values are drawn from paper PMC11066871 (Journal of the American Chemical Society, 2024).
